{"source": "patent US20060069132A1", "about": "“Azolecarboxamide herbicides” (priority 2004, published 2006)", "assay_in_all_cases": "Test C postemergence herbicide test", "key": {"wheat": {"test_system": "wheat", "type": "in vivo, Triticum aestivum", "outline": "(§1)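 Injury scored visually against controls on a 0 (no effect) to 100 (complete control) scale, 12 to 14 days after treatment in greenhouse. Flooded paddy plants treated at 2-leaf stage; postemergence plants at 1- to 4-leaf stage, 2 to 18 cm tall.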"}, "windgrass": {"test_system": "windgrass", "type": "in vivo, Apera spica-venti", "outline": "as §1"}, "green foxtail": {"test_system": "green foxtail", "type": "in vivo, Setaria viridis", "outline": "as §1"}, "blackgrass": {"test_system": "blackgrass", "type": "in vivo, Alopecurus myosuroides", "outline": "as §1"}, "downy bromegrass": {"test_system": "downy bromegrass", "type": "in vivo, Bromus tectorum", "outline": "as §1"}, "winter barley": {"test_system": "winter barley", "type": "in vivo, Hordeum vulgare", "outline": "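Greenhouse test with a 12–14 day hold after application and visual comparison with controls. Emerged plants were 1- to 4-leaf stage (2–18 cm) when sprayed postemergence, and the paddy barnyardgrass was at 2 leaves under flooded conditions. 100 = complete control.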"}, "wild oat": {"test_system": "wild oat", "type": "in vivo, Avenafatua", "outline": "as §1"}, "canarygrass": {"test_system": "canarygrass", "type": "in vivo, Phalaris minor", "outline": "as §1"}, "Italian ryegrass": {"test_system": "Italian ryegrass", "type": "in vivo, Lolium multiflorum", "outline": "as §1"}, "[1]": {"settings": "Postemergence, 500 g ai/ha, scale 0 to 100, 0 no effect, 100 complete control"}, "[2]": {"settings": "postemergence, 125 g ai/ha, scale 0 to 100"}, "[3]": {"settings": "postemergence, 62 g ai/ha, scale 0 to 100"}, "[4]": {"settings": "Postemergence, 250 g ai/ha, scale 0 to 100, 0 no effect, 100 complete control"}, "[5]": {"settings": "Postemergence, 500 g ai/ha, scale 0 to 100"}, "[6]": {"settings": "postemergence, 125 g ai/ha, scale 0 to 100 (0 no effect, 100 complete control)"}, "[7]": {"settings": "postemergence, 62 g ai/ha, scale 0 to 100 (0 no effect, 100 complete control)"}, "[8]": {"settings": "postemergence, 31 g ai/ha, scale 0 to 100"}}}
{"smiles": "C#CCOc1cccc(NC(=O)c2cc(C(C)(C)C)nn2CC)c1", "note": "[Compound 411]", "values": [{"measurement": "Plant response rating, Wheat", "setting": "wheat; [1]", "value": 55}, {"measurement": "Plant response rating, Wheat", "setting": "wheat; [2]", "value": 35}, {"measurement": "Plant response rating, Wheat", "setting": "wheat; [3]", "value": 35}, {"measurement": "Plant response rating, Windgrass", "setting": "windgrass; [1]", "value": 65}, {"measurement": "Plant response rating, Windgrass", "setting": "windgrass; [2]", "value": 55}, {"measurement": "Plant response rating, Windgrass", "setting": "windgrass; [3]", "value": 40}, {"measurement": "Plant response rating, Foxtail, Green", "setting": "green foxtail; [4]", "value": 65}, {"measurement": "Plant response rating, Foxtail, Green", "setting": "green foxtail; [1]", "value": 70}, {"measurement": "Plant response rating, Foxtail, Green", "setting": "green foxtail; [2]", "value": 65}, {"measurement": "Plant response rating, Foxtail, Green", "setting": "green foxtail; [3]", "value": 60}, {"measurement": "Blackgrass plant response rating", "setting": "blackgrass; [5]", "value": 70}, {"measurement": "Plant response rating, Blackgrass", "setting": "blackgrass; [4]", "value": 65}, {"measurement": "Plant response rating, Blackgrass", "setting": "blackgrass; [2]", "value": 65}, {"measurement": "Plant response rating, Blackgrass", "setting": "blackgrass; [3]", "value": 50}, {"measurement": "Plant response rating, Bromegrass, Downy", "setting": "downy bromegrass; [4]", "value": 45}, {"measurement": "Plant response rating, Bromegrass, Downy", "setting": "downy bromegrass; [1]", "value": 45}, {"measurement": "Plant response rating, Bromegrass, Downy", "setting": "downy bromegrass; [2]", "value": 40}, {"measurement": "Plant response rating, Bromegrass, Downy", "setting": "downy bromegrass; [3]", "value": 40}, {"measurement": "Barley, Winter plant response rating", "setting": "winter barley; [5]", "value": 40}, {"measurement": "Plant response rating, Barley, Winter", "setting": "winter barley; [4]", "value": 35}, {"measurement": "Plant response rating, Barley, Winter", "setting": "winter barley; [6]", "value": 35}, {"measurement": "Plant response rating, Barley, Winter", "setting": "winter barley; [7]", "value": 30}, {"measurement": "Plant response rating, Oat, Wild", "setting": "wild oat; [1]", "value": 65}, {"measurement": "Plant response rating, Oat, Wild", "setting": "wild oat; [2]", "value": 60}, {"measurement": "Plant response rating, Oat, Wild", "setting": "wild oat; [3]", "value": 60}, {"measurement": "Plant response rating, Canarygrass", "setting": "canarygrass; [4]", "value": 65}, {"measurement": "Plant response rating, Canarygrass", "setting": "canarygrass; [1]", "value": 65}, {"measurement": "Plant response rating, Canarygrass", "setting": "canarygrass; [2]", "value": 60}, {"measurement": "Plant response rating, Canarygrass", "setting": "canarygrass; [3]", "value": 60}, {"measurement": "Plant response rating, Ryegrass, Italian", "setting": "Italian ryegrass; [1]", "value": 65}, {"measurement": "Plant response rating, Ryegrass, Italian", "setting": "Italian ryegrass; [2]", "value": 60}, {"measurement": "Plant response rating, Ryegrass, Italian", "setting": "Italian ryegrass; [3]", "value": 45}]}
{"smiles": "C#CCNC(=O)c1cccc(NC(=O)c2nn(C(C)(C)C)nc2CC)c1", "note": "[Compound 380]", "values": [{"measurement": "Plant response rating, Wheat", "setting": "wheat; [2]", "value": 25}, {"measurement": "Plant response rating, Wheat", "setting": "wheat; [3]", "value": 20}, {"measurement": "Plant response rating, Windgrass", "setting": "windgrass; [2]", "value": 60}, {"measurement": "Plant response rating, Windgrass", "setting": "windgrass; [3]", "value": 45}, {"measurement": "Plant response rating, Foxtail, Green", "setting": "green foxtail; [4]", "value": 60}, {"measurement": "Plant response rating, Foxtail, Green", "setting": "green foxtail; [2]", "value": 60}, {"measurement": "Plant response rating, Foxtail, Green", "setting": "green foxtail; [3]", "value": 60}, {"measurement": "Plant response rating, Blackgrass", "setting": "blackgrass; [4]", "value": 55}, {"measurement": "Plant response rating, Blackgrass", "setting": "blackgrass; [2]", "value": 45}, {"measurement": "Plant response rating, Blackgrass", "setting": "blackgrass; [8]", "value": 40}, {"measurement": "Plant response rating, Blackgrass", "setting": "blackgrass; [3]", "value": 40}, {"measurement": "Plant response rating, Bromegrass, Downy", "setting": "downy bromegrass; [4]", "value": 65}, {"measurement": "Plant response rating, Bromegrass, Downy", "setting": "downy bromegrass; [2]", "value": 60}, {"measurement": "Plant response rating, Bromegrass, Downy", "setting": "downy bromegrass; [8]", "value": 45}, {"measurement": "Plant response rating, Bromegrass, Downy", "setting": "downy bromegrass; [3]", "value": 55}, {"measurement": "Plant response rating, Barley, Winter", "setting": "winter barley; [4]", "value": 30}, {"measurement": "Plant response rating, Barley, Winter", "setting": "winter barley; [6]", "value": 20}, {"measurement": "Plant response rating, Barley, Winter", "setting": "winter barley; [8]", "value": 10}, {"measurement": "Plant response rating, Barley, Winter", "setting": "winter barley; [7]", "value": 20}, {"measurement": "Plant response rating, Oat, Wild", "setting": "wild oat; [2]", "value": 60}, {"measurement": "Plant response rating, Oat, Wild", "setting": "wild oat; [3]", "value": 55}, {"measurement": "Plant response rating, Canarygrass", "setting": "canarygrass; [4]", "value": 45}, {"measurement": "Plant response rating, Canarygrass", "setting": "canarygrass; [2]", "value": 40}, {"measurement": "Plant response rating, Canarygrass", "setting": "canarygrass; [8]", "value": 30}, {"measurement": "Plant response rating, Canarygrass", "setting": "canarygrass; [3]", "value": 40}, {"measurement": "Plant response rating, Ryegrass, Italian", "setting": "Italian ryegrass; [2]", "value": 50}, {"measurement": "Plant response rating, Ryegrass, Italian", "setting": "Italian ryegrass; [3]", "value": 45}]}
{"smiles": "CCOC(=O)c1ccc(F)c(NC(=O)c2cc(C3(C)CC3)nn2CC)c1", "note": "[Compound 296]", "values": [{"measurement": "Plant response rating, Wheat", "setting": "wheat; [4]", "value": 40}, {"measurement": "Plant response rating, Wheat", "setting": "wheat; [2]", "value": 35}, {"measurement": "Plant response rating, Wheat", "setting": "wheat; [3]", "value": 35}, {"measurement": "Plant response rating, Windgrass", "setting": "windgrass; [4]", "value": 65}, {"measurement": "Plant response rating, Windgrass", "setting": "windgrass; [2]", "value": 50}, {"measurement": "Plant response rating, Windgrass", "setting": "windgrass; [3]", "value": 45}, {"measurement": "Plant response rating, Foxtail, Green", "setting": "green foxtail; [4]", "value": 60}, {"measurement": "Plant response rating, Foxtail, Green", "setting": "green foxtail; [2]", "value": 50}, {"measurement": "Plant response rating, Foxtail, Green", "setting": "green foxtail; [3]", "value": 40}, {"measurement": "Plant response rating, Blackgrass", "setting": "blackgrass; [4]", "value": 75}, {"measurement": "Plant response rating, Blackgrass", "setting": "blackgrass; [2]", "value": 65}, {"measurement": "Plant response rating, Blackgrass", "setting": "blackgrass; [8]", "value": 45}, {"measurement": "Plant response rating, Blackgrass", "setting": "blackgrass; [3]", "value": 60}, {"measurement": "Plant response rating, Bromegrass, Downy", "setting": "downy bromegrass; [4]", "value": 45}, {"measurement": "Plant response rating, Bromegrass, Downy", "setting": "downy bromegrass; [2]", "value": 35}, {"measurement": "Plant response rating, Bromegrass, Downy", "setting": "downy bromegrass; [8]", "value": 25}, {"measurement": "Plant response rating, Bromegrass, Downy", "setting": "downy bromegrass; [3]", "value": 35}, {"measurement": "Plant response rating, Barley, Winter", "setting": "winter barley; [4]", "value": 45}, {"measurement": "Plant response rating, Barley, Winter", "setting": "winter barley; [6]", "value": 40}, {"measurement": "Plant response rating, Barley, Winter", "setting": "winter barley; [8]", "value": 30}, {"measurement": "Plant response rating, Barley, Winter", "setting": "winter barley; [7]", "value": 35}, {"measurement": "Plant response rating, Oat, Wild", "setting": "wild oat; [4]", "value": 60}, {"measurement": "Plant response rating, Oat, Wild", "setting": "wild oat; [2]", "value": 60}, {"measurement": "Plant response rating, Oat, Wild", "setting": "wild oat; [3]", "value": 35}, {"measurement": "Plant response rating, Canarygrass", "setting": "canarygrass; [4]", "value": 55}, {"measurement": "Plant response rating, Canarygrass", "setting": "canarygrass; [2]", "value": 40}, {"measurement": "Plant response rating, Canarygrass", "setting": "canarygrass; [8]", "value": 30}, {"measurement": "Plant response rating, Canarygrass", "setting": "canarygrass; [3]", "value": 30}, {"measurement": "Plant response rating, Ryegrass, Italian", "setting": "Italian ryegrass; [4]", "value": 65}, {"measurement": "Plant response rating, Ryegrass, Italian", "setting": "Italian ryegrass; [2]", "value": 45}, {"measurement": "Plant response rating, Ryegrass, Italian", "setting": "Italian ryegrass; [3]", "value": 35}]}
